Measured values: US5486516A, “Furopyrimidine derivatives” (DowElanco, priority 1993, dated 1996)
Read-outs that look alike come from different tables or passages of the source.

How the values were obtained:
[1] = tested on: melon aphids (Aphis gossvpii Glover); assay: Mite/insect screen, melon aphids; assay type: in vivo; settings: Aphis, read-out: MA results (percent mortality)
Procedure, shortened: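 Aphids established on squash cotyledons were sprayed to runoff with compound in acetone/alcohol with sulfonate/nonionic emulsifiers, diluted in water to test concentrations. Leaves dried 1 h. Percent mortality scored after standard exposure periods.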

[2] = tested on: Pyricularia oryzae (rice blast); assay: whole plant or invertebrate; assay type: in vivo; settings: foliar, read-out: RICE BLAST control rating
[3] = tested on: Pseudoperonospora cubensis (downy mildew); assay: Plant pathology screen (Test 1), downy mildew on squash; settings: foliar, read-out: DOWN MDEW control rating
Experimental: (§1) The test compounds were formulated for application by dissolving 50 mg of the compound into 1.25 ml of solvent. The solvent was prepared by mixing 50 ml of "Tween 20" (polyoxyethylene (20) sorbitan monolaurate emulsifier) with 475 ml of acetone and 475 ml of ethanol. The solvent/compound solution was diluted to 125 ml with deionized water. The resulting formulation contains 400 ppm test chemical. Lower concentrations were obtained by serial dilution with the solvent-surfactant mixture.
(§2) The formulated test compounds were applied by foliar spray. The following plant pathogens and their corresponding plants were employed.
(§3) The formulated technical compounds were sprayed on all foliar surfaces of the host plants (or cut berry) to past run-off. Single pots of each host plant were placed on raised, revolving pedestals in a fume hood. Test solutions were sprayed on all foliar surfaces. All treatments were allowed to dry and the plants were inoculated with the appropriate pathogens within 2-4 hours.
(§4) The effectiveness of test compounds in controlling disease was rated using the following scale.

[4] = tested on: Botrytis cinerea (gray mold); assay: Plant pathology screen (Test 1), gray mold on grape berries; settings: read-out: GRAY MOLD control rating
Experimental: This screen was used to evaluate the efficacy of the present compounds against a variety of different organisms that cause plant diseases.
as §1, §2, §3, §4

[5] = tested on: Puccinia recondita tritici (leaf rust); assay: Plant pathology screen (Test 1), leaf rust on wheat; settings: in Triticum aestivum, foliar, read-out: LEAF RUST control rating
[6] = tested on: Twospotted spider mites (Tetranychus urticae Koch); assay: Mite/insect screen, twospotted spider mites; assay type: in vivo; settings: Tetranychus urticae, read-out: SM results (percent mortality)
Procedure, shortened: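 Squash cotyledons infested with mites were sprayed to runoff at 10 psi with compound in acetone/alcohol plus emulsifiers, diluted in water to the stated concentrations. Percent mortality and phytotoxicity were scored after standard exposure periods.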

[7] = tested on: Southern corn rootworm (Diabrotica undecimpuctata howardi Barber); assay: Mite/insect screen, corn rootworm; assay type: in vivo; settings: Diabrotica, soil, read-out: CRW results (percent mortality)
Procedure, shortened: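 Compound in acetone/alcohol with emulsifiers, diluted with water; 1 mL applied to 15 g dry sandy soil holding a presoaked corn seed. After 6–12 h drying, five 2-3 instar larvae added, held at 23° C; percent mortality and phytotoxicity scored after standard exposure periods.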

[8] = tested on: Erysiphe graminis tritici (powdery mildew); assay: Plant pathology screen (Test 1), powdery mildew on wheat; settings: Blumeria graminis, in Triticum aestivum, foliar, read-out: POWD MDEW control rating
[9] = tested on: southern armyworm (Spodopetra eridania Cramer); assay: Mite/insect screen, Southern armyworm; assay type: in vivo; settings: Spodoptera eridania, read-out: SAW results (percent mortality)
Procedure, shortened: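 Compounds in acetone/alcohol with Toximul emulsifiers, diluted in water, sprayed to runoff on squash leaves at 10 psi and dried 1 h. Excised treated leaves fed to southern armyworm larvae in Petri dishes; percent mortality scored after standard exposure.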

| SMILES | mortality at 200 ppm ([1]; rate 200 ppm, sprayed leaves) | mortality at 400 ppm ([1]; rate 400 ppm, sprayed leaves) | pest or weed control at 400 µg/mL [2] | pest or weed control at 400 µg/mL [3] | pest or weed control at 400 µg/mL [4] | pest or weed control at 400 µg/mL [5] | mortality at 200 ppm ([6]; rate 200 ppm, sprayed leaves) | mortality at 400 ppm ([6]; rate 400 ppm, sprayed leaves) | mortality at 12 ppm ([7]; CRW rate 12.00 ppm) | mortality at 24 ppm ([7]; CRW rate 24.00 ppm) | pest or weed control at 400 µg/mL [8] | mortality at 200 ppm ([9]; rate 200 ppm, sprayed leaves) | mortality at 400 ppm ([9]; rate 400 ppm, sprayed leaves) | further results |
| --- | --- | --- | --- | --- | --- | --- | --- | --- | --- | --- | --- | --- | --- | --- |
| COc1ccc(CCNc2ncnc3occ(C)c23)cc1 [Example 2, 5-methyl-N-[2-(4-methoxyphenyl)ethyl]furo[2,3-d]pyrimidin-4-amine] | 0% | 80% | 90 to 100% | 90 to 100% | 0 to 19% | 90 to 100% | 0% | 0% | 0% | 0% | 20 to 89% | 0% | 0% | – |
| Cc1cc2c(NCCc3ccc4ccccc4c3)ncnc2o1 [Example 31, 6-methyl-N-[2-(2-naphthalenyl)ethyl]furo[2,3-d]pyrimidine-4-amine] | 90% | 0% | 20 to 89% | 90 to 100% | 0 to 19% | 90 to 100% | 20% | 100% | 0% | 0% | 20 to 89% | 100% | 80% | – |
| Cc1cc2c(Oc3ccc(F)cc3)ncnc2o1 [Example 5, 6-methyl-4-(4-fluorophenoxy)furo[2,3-d]pyrimidine] | 0% | 0% | 0 to 19% | 0 to 19% | 0 to 19% | 90 to 100% | 0% | 0% | 0% | 0% | 20 to 89% | 0% | 0% | – |
| Cc1oc2ncnc(Oc3ccccc3)c2c1C [Example 64, 5,6-dimethyl-4-phenoxyfuro[2,3-d]pyrimidine] | 0% | 0% | 0 to 19% | 90 to 100% | 0 to 19% | 20 to 89% | 0% | 0% | 0% | 0% | 90 to 100% | 0% | 0% | – |
| Cc1oc2ncnc(OC3CN4CCC3CC4)c2c1C (stereo not shown) [Example 17, 5,6-dimethyl-4-(1-azabicyclo[2.2.2]oct-3-yloxy)furo[2,3-d]pyrimidine] | – | – | 0 to 19% | 0 to 19% | 0 to 19% | 0 to 19% | – | – | – | – | 0 to 19% | – | – | mortality at 200 ppm [1]: 0%; mortality at 400 ppm [1]: 0%; mortality at 200 ppm [6]: 0%; mortality at 400 ppm [6]: 0%; mortality at 12 ppm [7]: 0%; mortality at 24 ppm [7]: 0%; mortality at 200 ppm [9]: 0%; mortality at 400 ppm [9]: 0% |
| Cc1cc2c(NCCc3ccc(Cl)cc3)ncnc2o1 [Example 6, 6-methyl-N-[2-(4-chlorophenyl)ethyl]furo(2,3-d]pyrimidin-4-amine] | 0% | 0% | 0 to 19% | 0 to 19% | 0 to 19% | 0 to 19% | 0% | 0% | 0% | 0% | 0 to 19% | 0% | 0% | – |
| Cc1oc2ncnc(OCCc3ccc4ccccc4c3)c2c1C [Example 55, 5,6-dimethyl-4-[2-(2-naphthyl)ethoxy]furo[2,3-d]pyrimidine] | 0% | 0% | 0 to 19% | 0 to 19% | 0 to 19% | 20 to 89% | 0% | 0% | 0% | 0% | 0 to 19% | 0% | 0% | – |
